One data set has as its system CVS. Conditions: cited from earlier work.
Another data set relates to CVS and ischemia. The settings on record: intrathecal, local or intraventricular application; humans or laboratory animal; cited from earlier work.
Data set [1] concerns patients with SAH after aneurysmal rupture. The experiment in a line: Spasm (CVS) related brain infarcts on CCT in SAH patients, Molsidomine in addition to standard therapy vs standard Nimodipine therapy. Format: in vivo, human. As for the experimental part: CCT at the beginning and after treatment were analyzed independently by two experienced neuroradiologists and were scanned for development of delayed brain infarction. At least three months after discharge a modified NIH-SS and a modified Rankin Scale (mRS) for clinical follow up was assessed. 83 patients admitted to the Intensive Care Unit of the University Hospital of Munster, Germany, after spontaneous aneurysmal SAH were registered in an observational study. […] These patients were excluded from further evaluation. […] Out of 76 individuals 27 patients received Molsidomine i.v. in an individually up-titrated dosage with a target quantity of 3.5-10 mg/h dependent on systemic circulation reactions. […] Within 24 h after admission to the ICU patients were treated with coil embolization and/or clipping. […] Appearance of CVS. Male and female patients with an age of 18 years and written informed consent for the additional application of Molsidomine. Spontaneous SAH after aneurysmal rupture and a clinical stage of Hunt and Hess grade Ito V. Exclusion criteria for patients were: No detected CVS. […] CCT and DSA images were independently reported by two experienced neuroradiologists for infarction and vasospasm. CVS related infarcts were diagnosed if hypodense lesions could be detected 72 h or later after therapeutic intervention or operation in comparison to the 24 h control CCT scan and being accompanied by clinical deterioration due to CVS or positive Doppler ultrasound or CVS in DSA.

Data set [2] has the same test system. Kind of data set: CVS detected by TCD (trans-cranial doppler). In kind it is in vivo, human. The source says: TCD (trans-cranial doppler) is a diagnostic procedure using ultrasound waves to measure blood flow through the major blood vessels of the brain. In particular, the purpose of this test is to detect any narrowing or blockage in arteries located at the base of the brain that may decrease or stop the flow of blood to the brain and increase blood flow velocities according to narrowed vessel diameter. The test is most useful at detecting decreased blood flow through narrow areas inside blood vessels. TCDs are especially useful for monitoring blood flow in the brain of stroke patients who are affected by brain swelling and vasospasm (which are cerebral blood vessel spasms).
The treatment with Molsidomine was applied if vasospasm was detected by TCD (mean flow […] resp. Lindegaard-Index >3) or DSA (narrowing of vessel diameter >50%).

The test system is the same in data set [3]. Kind of data set: Clinical outcome by modified NIH-SS and modified Rankin Scale at least three months after discharge. Format: in vivo, human. From the text:
The National Institutes of Health stroke scale (NIH-SS) is a graded neurological examination that assesses speech, language cognition, inattention, visual field abnormalities, motor and sensory impairments, and ataxia. The scale was developed for use in acute-stroke therapy trials and has since been widely used as a standard part of the assessment in clinical trials. This scale, along with many others, has been evaluated in its clinical usefulness in the assessment of the stroke patient. The NIH-SS permits a high-resolution evaluation of a patient's neurological status. To obtain the finding on the NIH-SS, various neurological aspects are investigated and assigned point scores. The total point score is a measure of the severity of the symptoms of stroke, the point score increasing with the severity of the symptoms. This rating scale is also suitable for monitoring the course of the symptoms after stroke and for quantifying the success of any treatment used. In general, it is possible to establish a correlation between the size of the infarct and the severity of the stroke as quantified by the stroke scale.
Rating scales such as the NIH-SS or the modified Rankin scale are generally used for the quantitative evaluation of the severity of a cerebral disorder, whether acute or under treatment.
CCT at the beginning and after treatment were analyzed independently by two experienced neuroradiologists and were scanned for development of delayed brain infarction. At least three months after discharge a modified NIH-SS and a modified Rankin Scale (mRS) for clinical follow up was assessed.
83 patients admitted to the Intensive Care Unit of the University Hospital of Munster, Germany, after spontaneous aneurysmal SAH were registered in an observational study. Seven patients died in the first 124 hours after admission, without detected CVS probably related to malignant brain edema and severity of initial SAH. These patients were excluded from further evaluation.
Out of 76 individuals 27 patients received Molsidomine i.v. in an individually up-titrated dosage with a target quantity of 3.5-10 mg/h dependent on systemic circulation reactions. The remaining 49 patients received standard therapy.
After a minimum of three months the modified NIH and modified Rankin status were determined in order to control clinical outcome of patients (NIH-SS and mRS).

Data set [4] shares this test system. Kind of data set: Side effects and monitoring of blood pressure (MAP), ICP and blood under Molsidomine i.v.
Protocol: In both groups blood pressure, intracranial pressure (ICP) and saturation measurement of blood oxygen were observed continuously. TCD was performed daily or on demand with investigation of the internal carotid artery (ACI), medial cerebral artery (MCA), anterior cerebral artery (ACA) and basilar artery (BA). For monitoring the clinical condition the GCS score (Glasgow Coma Score) was determined per hour
The drug used contains Molsidomine, as supplied by Sanofi-Aventis, Germany, in ampullae with 2 mg/molsidomine (Corvaton®). The dosage of Molsidomine was adapted to the systemic blood pressure.
The dosage was reduced if the MAP dropped below 65 mmHg despite infusion therapy (HES 6-10%) or a mild Arterenol® therapy (max dosage Arterenol® 0.1-0.2 μg/h, preferably at a dose of 0.1-0.3 mg/h or a dose of 0.1-0.2 μg/kg/min.). With increased need for Arterenol® the dosage of Molsidomine was reduced accordingly. Patients with cardiac low-output failure induced by preexistent cardiac failure, stop of perfusion during acute SAH itself or other reasons like sepsis received Molsidomine up-titrated in highest possible amount based on cardiac treatment or the treatment was interrupted for maximal 48 hours if Arterenol®-dosage escalated.
The treatment with Molsidimine was continued (either i.v. or subsequent orally 4×8 mg ret.) until mean flows in TCD were normalized. The duration of Molsodomine application was at least 8 days according to inclusion criteria: Appearance or presence of detectable CVS.
For data set [5] the following is noted: after oral administration; cited from earlier work.
The subject of data set [6] is patients after brain hemorrhage, in particular SAH. Conditions: under Nimodipine therapy; cited from earlier work.
The test system of data set [7] is rat cerebral arterioles and venules. Conditions: He-Ne laser; cited from earlier work.
Data set [8] has as its system spontaneously hypertensive rats (SHRs). Conditions: cited from earlier work.
The test system of a further data set is SAH group. Conditions: administered 48 hours after SAH was induced; cited from earlier work.
For data set [9] the following is noted: in vivo; cited from earlier work.
Setting [10] is: infusion 3 min after MCA occlusion.

“Also recorded” adds a separate entry of the source.

`COc1ccccc1Oc1c(NS(=O)(=O)c2ccc(C)cn2)nc(-c2ccnc(-c3nnn[nH]3)c2)nc1OCCO` [Clazosentan]: the “treatment of CVS” value in the data set on CVS (in vivo) is reported as “highly efficiency for the treatment of CVS”. Further, the “long-term outcome or clinical benefit” value in the data set with CVS (multicenter study) is “failed to show any effect on long-term outcome or clinical benefit”.

In the case of `O=[N+]([O-])OCC(CO[N+](=O)[O-])O[N+](=O)[O-]` [GTN, nitroglycerin], in the data set with CVS and ischemia, the “effect on CVS and ischemia” value was “good prophylactic effect on CVS and ischemia”.

`CCOC(=O)[N-]c1c[n+](N2CCOCC2)no1` [Molsidomine, N-ethoxycarbonyl-3-morpholinosydnonimine]: the “Spasmus related infarcts, Infarction (number of patients)” value in data set [1] (Hunt & Hess grade III°) is on record as 1; in [1] (Hunt & Hess grade II°), 0; in [1] (Hunt & Hess grade IV°), 1; in [1] (Hunt & Hess grade I°), 1; in data set [1] (Hunt & Hess grade V°), 0. The “patients who developed CVS associated infarcts (share of group)” value in [1] (all Hunt & Hess grades) came to 11.1%. Moreover, in [1] (all Hunt & Hess grades), the “patients who developed vasospasm associated brain infarctions / patients of the group” value is 3/27. The “patients who developed CVS associated infarcts (number)” value in data set [1] (all Hunt & Hess grades, groups of 49 (Nimodipine) and 27 (Molsidomine)) came to 3. The “effect in terminating CVS” value in data set [2] (judged from equal number of intra-arterial Nimodipine treatments per individual) is “weak effect”. Besides, in [2] (under Molsidomine treatment), the “TCD-values (flow velocities)” value was “trend in Transcranial Doppeler (TCD)-values towards normal velocities”. The “Mean NIH >3 months (without deaths)” value was 3.62 in data set [3] (Hunt & Hess grade III°); 1 in data set [3] (Hunt & Hess grade II°); 3.8 in data set [3] (Hunt & Hess grade IV°); 0 in [3] (Hunt & Hess grade I°); 17 in data set [3] (Hunt & Hess grade V°). The “Mean mRS >3 months” value in [3] (Hunt & Hess grade III°) came out at 1.75; in data set [3] (Hunt & Hess grade II°) it was 1; in [3] (Hunt & Hess grade IV°), 1.6; in data set [3] (Hunt & Hess grade I°) it was 1.75; in data set [3] (Hunt & Hess grade V°), 4. Moreover, the “clinical condition and long term outcome in the follow up” value in data set [3] (SAH-survivors) is “impressive improvement of clinical condition and long term outcome”. Further, the clinical deterioration result in data set [3] (SAH-survivors) was “no clinical deterioration”. Also, the “patients partly in work process again or to be reintegrated soon” value in [3] (follow up, normally approx. 5% return to work) is 5/27. Besides, the “adverse / side effects” value in data set [4] (Molsidomine i.v., target 3.5-10 mg/h) is reported as “No adverse side effects were observed; also recorded: did not show any relevant side effects; also recorded: no serious, untreatable (i.e. severe hypotension) adverse effects were observed”. The “depression of MAP, maximum” value in data set [4] (even with higher dosage) is listed as no more than 10 mmHg. In data set [4] (even with higher dosage), the “depression of blood pressure (systolic)” value is reported as 10-20 mmHg. Further, in data set [4] (regredient after increased Molsidomine levels), the “effect of fast reduction of dosage” value is given as “on/off phenomena or a rebound”. In [4] (under Molsidomine), the Blood stains entry is recorded as “normal”. Further, the ICP entry in [4] (under Molsidomine) was “did not increase for short or longer periods”. In addition, in data set [4] (under Molsidomine), the MAP kept is 65-70 mmHg. Also, in [5], the absorption entry is listed as “completely absorbed”.

Take `COCCOC(=O)C1=C(C)NC(C)=C(C(=O)OC(C)C)C1c1cccc([N+](=O)[O-])c1` (centres unmarked) [Nimodipine, 1,4-dihydro-2,6-dimethyl-4-(3-nitrophenyl)-3,5-pyridinedicarboxylic acid 2-methoxyethyl 1-methylethyl ester]: in [1] (all Hunt & Hess grades), the “patients who developed vasospasm associated brain infarctions / patients of the group” value is listed as 25/49. Besides, the “associated DINDs” value in [6] is given as 27-37%. Also, the spasm-associated infarcts in data set [6] is recorded as 20-30%. In addition, the “spasm-associated infarcts detected by advanced CT-technique” value in [6] is “up to 50%”. In addition, in data set [6], the “spasm-related mortality and high-grade morbidity” value was 30-40%. The “Mean NIH >3 months (without deaths)” value in data set [3] (Hunt & Hess grade III°) was 10.6; in data set [3] (Hunt & Hess grade II°), 0; in [3] (Hunt & Hess grade IV°), 12.3; in [3] (Hunt & Hess grade I°) it was 0.5; in data set [3] (Hunt & Hess grade V°), 38 (2 × exitus). For the same molecule, the “Mean mRS >3 months” value in data set [3] (Hunt & Hess grade III°) amounted to 3.75; in data set [3] (Hunt & Hess grade II°) it was 3; in [3] (Hunt & Hess grade IV°), 4.3; in data set [3] (Hunt & Hess grade I°) it was 1.6; in data set [3] (Hunt & Hess grade V°), 5.7.

As to `N=c1c[n+](N2CCOCC2)[n-]o1` [SIN-1, 3-morpholinosydnonimine], in [7], the thrombus formation entry is reported as “antithrombotic effect”. In data set [8] (after MCA occlusion), the “recovery of cerebral blood flow (CBF)” value is listed as “enhanced the recovery of cerebral blood flow (CBF)” and the “size of the infarct” value is given as “reduced the size of the infarct”. In addition, in data set [8] (setting [10]), the infarct entry is given as “reduced the infarct”; the “recovery of CBF and EEG amplitude” value was “enhanced the recovery of CBF and EEG amplitude”. Moreover, the CBF result with SAH group is reported as “increased CBF”. Also, the plasma protein binding result in data set [9] was “no relevant plasma protein binding”.

The values above are taken from US20130252959A1, “NITRIC OXIDE DONORS IN THERAPY OF NITRIC OXIDE DEFICIENCY-INDUCED DISTURBANCES OF CEREBRAL MICROCIRCULATION” (West-Falische Wilhelms-Universitat Munster, priority 2010, published 2013).
